Measurements reported in patent US20240277736A1, “USE OF PSILOCYBIN IN THE TREATMENT OF NEUROLOGICAL BRAIN INJURY AND MIGRAINES” (priority 2020, published 2024).
“Also recorded” adds a separate entry of the source.

How the values were obtained:
[1] = tested on: primary cortical neuronal culture (PCN); assay: Glutamate neurotoxicity in primary cortical neuronal culture, MAP2 immunostaining; details: Glu 100 µM
5-HT1A = biological target: T1, 5-HT1A (Homo sapiens, UniProt P08908); details: cited from earlier work
T1 sequence (P08908 1-422): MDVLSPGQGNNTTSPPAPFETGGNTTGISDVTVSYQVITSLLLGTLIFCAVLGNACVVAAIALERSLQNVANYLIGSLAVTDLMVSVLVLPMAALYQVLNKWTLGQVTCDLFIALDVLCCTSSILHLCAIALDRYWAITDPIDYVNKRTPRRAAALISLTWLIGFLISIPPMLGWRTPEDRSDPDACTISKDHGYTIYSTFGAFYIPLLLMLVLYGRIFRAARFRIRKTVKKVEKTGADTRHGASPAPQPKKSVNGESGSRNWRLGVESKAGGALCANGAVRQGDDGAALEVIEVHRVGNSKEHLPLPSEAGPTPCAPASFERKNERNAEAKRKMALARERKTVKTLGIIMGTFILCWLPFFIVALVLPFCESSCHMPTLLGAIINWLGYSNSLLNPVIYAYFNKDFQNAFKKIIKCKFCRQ

TBI mice = assay: Morris water maze test in a mouse model of traumatic brain injury (controlled cortical impact)
cluster headache (CH) = details: low-dose psilocybin; cited from earlier work
5-HT2A receptor = 5-HT2A receptor (Homo sapiens, UniProt P28223); details: cited from earlier work
[2] = Deaths during surgery or post-TBI drug treatment; format: in vivo, CD1 mice; details: intranasal, day 4 to day 8 after CCI
[3] = Body weight of TBI mice on PID21; format: in vivo, CD1 mice; details: for body weight: measured on PID21
[4] = high dose Psilocybin, day 4 to day 8, PID 10, 14 and 21

Chain of 5-HT2A receptor (P28223 whole entry): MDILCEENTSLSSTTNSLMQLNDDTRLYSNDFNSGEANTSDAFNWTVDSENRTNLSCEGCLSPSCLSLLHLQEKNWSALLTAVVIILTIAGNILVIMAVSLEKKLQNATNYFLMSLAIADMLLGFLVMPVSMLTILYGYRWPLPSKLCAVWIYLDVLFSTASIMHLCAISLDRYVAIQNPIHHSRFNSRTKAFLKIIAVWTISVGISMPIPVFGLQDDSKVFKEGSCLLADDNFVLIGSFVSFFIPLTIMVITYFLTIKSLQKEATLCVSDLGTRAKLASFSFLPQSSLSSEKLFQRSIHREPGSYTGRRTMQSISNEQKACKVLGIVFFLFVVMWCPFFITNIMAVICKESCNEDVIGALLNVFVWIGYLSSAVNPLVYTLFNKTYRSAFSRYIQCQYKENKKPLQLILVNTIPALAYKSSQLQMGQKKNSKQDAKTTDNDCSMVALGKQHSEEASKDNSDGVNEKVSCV

SMILES	Effect on MAP2 immunoreactivity (MAP2-ir) vs. vehicle ([1]; 48 hrs)	Agonist activity at 5-HT1A (5-HT1A)	No. of crossing (average number of platform crossings) (TBI mice; Psi-H (high dose), Day 3 (PID3, before drug treatment))	No. of crossing (average number of platform crossings) (TBI mice; Psi-H (high dose, i.n. day 4 to day 8 after CCI), Day 10)	No. of crossing (average number of platform crossings) (TBI mice; Psi-H (high dose, i.n. day 4 to day 8 after CCI), Day 14)	No. of crossing (average number of platform crossings) (TBI mice; Psi-H (high dose, i.n. day 4 to day 8 after CCI), Day 21)	No. of crossing (average number of platform crossings) (TBI mice; Psi-L (low dose), Day 3 (PID3, before drug treatment))	No. of crossing (average number of platform crossings) (TBI mice; Psi-L (low dose, i.n. day 4 to day 8 after CCI), Day 10)	No. of crossing (average number of platform crossings) (TBI mice; Psi-L (low dose, i.n. day 4 to day 8 after CCI), Day 14)	No. of crossing (average number of platform crossings) (TBI mice; Psi-L (low dose, i.n. day 4 to day 8 after CCI), Day 21)	Average number of platform crossings in TBI mice (in words) (TBI mice; [4])	Time in the target area in TBI mice (in words) (TBI mice; [4])	Cognitive function in TBI mice (Morris water maze) (TBI mice; i.n. starting 4 days after TBI for 5 days)	Effect on cluster headache (cluster headache (CH))	Agonist activity at 5-HT2A receptor (5-HT2A receptor)	Antagonism of glutamate-mediated reduction of MAP2 immunoreactivity (neuronal loss) ([1]; PSI 100 nM or 1 μM, n=5-6 per group)	Animal deaths during post-TBI drug treatment [2]	Body weight (in words) ([3]; PID21)	body weight ([3]; Psi-H (high dose))	body weight ([3]; Psi-L (low dose))
N[C@@H](CCC(=O)O)C(=O)O [Glu, glutamate]	significantly reduced	–	–	–	–	–	–	–	–	–	–	–	–	–	–	–	–	–	–	–
CN(C)CCc1c[nH]c2cccc(OP(=O)(O)O)c12 [Psilocybin, 4-phosphoryloxy-N,N-dimethyltryptamine]	–	moderate agonist	4.43 ± 0.69	6.00 ± 0.85	6.00 ± 0.44	6.00 ± 0.66	3.57 ± 0.90	4.14 ± 0.51	4.43 ± 0.61	3.29 ± 0.57	significantly increased	significantly increased	significantly improved	can prevent	strong agonist	not significantly altered; also recorded: non-significant trend; also recorded: not significantly antagonized; also recorded: did not significantly alter	No animal died	did not significantly alter	34.7 ± 0.87 g	35.71 ± 0.68 g
